# Measurements from EP1095021B1, “QUINOLINE DERIVATIVES” (Active Biotech AB, priority 1998, dated 2000).
# What was measured:
# [1] = test system: acute experimental autoimmune encephalomyelitis (aEAE); assay: Acute experimental autoimmune encephalomyelitis (aEAE) inhibition; assay type: in vivo, SJL/N female mice; conditions: for % aEAE Inhibition: percent inhibition of clinical scores compared to saline treated controls
# foetuses = assay: Teratogenic effects in the rat; assay type: in vivo; conditions: for % malformed fetuses: day 8 to 14 of pregnancy
# [2] = test system: Beagle Pain Syndrome (BPS); assay: Beagle Pain Syndrome (BPS); assay type: in vivo; conditions: different breeds of beagle dogs
# Description: The disease is reflected by clinical and laboratory manifestations justifying BPS as a model for the flu-like syndrome induced by roquinimex in man.
# Beagle Pain Syndrome (BPS).
# The compounds were administrated intravenously to beagle dogs. The dosage was given for five consecutive days. The dogs were evaluated for clinical and laboratory signs of the pain syndrome, e.g., fever, increased erythrocyte sedimentation rate (ESR), alkaline phosphate (AP), induction of acute phase proteins and vasculitis
Compound,% aEAE Inhibition ([1]; Dose 0.2 mg/kg p.o.) [%],% aEAE Inhibition ([1]; Dose 1 mg/kg p.o.) [%],% malformed fetuses (foetuses; Dose 6 mg/kg p.o.) [%],% aEAE Inhibition ([1]; Dose 5 mg/kg p.o.) [%],"inhibition of acute experimental autoimmune encephalomyelitis (aEAE) ([1]; at ≥5 mg/kg, treatment control)",% malformed fetuses (foetuses; Dose 10 mg/kg p.o.) [%],% malformed fetuses (foetuses; Dose 30 mg/kg p.o.) [%],teratogenic effect (foetuses; rat),Beagle Pain Syndrome (BPS) [2]
"CN(C(=O)c1c(O)c2c(Cl)cccc2n(C)c1=O)c1ccccc1 [Compound C, N-Methyl-N-phenyl-1,2-dihydro-4-hydroxy-5-chloro-1-methyl-2-oxo-quinoline-3-carboxamide]",92,100,37,–,–,–,–,–,–
"CN(C(=O)c1c(O)c2c(Cl)cccc2n(C)c1=O)c1ccc(F)cc1F [Compound B, N-methyl-N-(2,4-difluorophenyl)-1,2-dihydro-4-hydroxy-5-chloro-1-methyl-2-oxo-quinoline-3-carboxamide]",59,96,0,100,–,–,–,–,–
"CN(C(=O)c1c(O)c2ccccc2n(C)c1=O)c1ccccc1 [Compound D, N-phenyl-N-methyl-1,2-dihydro-4-hydroxy-1-methyl-2-oxo-quinoline-3-carboxamide]",35,40,–,69,more than 50%,9,30,teratogenic,induce the Beagle Pain Syndrome (BPS)
"COc1cccc2c1c(O)c(C(=O)N(C)c1ccc(C(F)(F)F)cc1)c(=O)n2C [Compound A, N-methyl-N-(4-trifluoromethyl-phenyl)-1,2-dihydro-4-hydroxy-5-methoxy-1-methyl-2-oxo-quinoline-3-carboxamide]",66,86,4,99,–,–,2,–,–
